Data taken from US3948925A, “Novel thiazole derivatives” (priority 1973, dated 1976).
Where two headings read alike, the source gives them in different places.

Columns and labels:
Assay type in all cases: in vivo
[1] = test system: Mamestra brassicae caterpillars; assay: Insecticidal activity against Mamestra brassicae caterpillars, topical application; settings: 10 μg per caterpillar; for mortality at 0.01 mg: Mamestra brassicae, topical, read-out: percent of mortality
Procedure: (§1) This test was effected on Mamestra brassicae caterpillars in the last larvae stage with a body of 1.5 to 2.0 cm. 1 μl of an acetone solution of the test compound was applied topically to the dorsal thorax of each caterpillar using 10 caterpillars for each dose studied and the caterpillars were kept at 25°C.

[2] = test system: Mamestra oleracea caterpillars; assay: Insecticidal activity against Mamestra oleracea caterpillars, topical application; settings: for mortality at 0.001 mg / mortality at 0.01 mg: Mamestra, topical; for mortality at 0.001 mg: 1 μg; for mortality at 0.01 mg: 10 μg
[3] = test system: Spodoptera exigua caterpillars; assay: Insecticidal activity against Spodoptera exigua caterpillars, topical application; settings: for mortality at 0.001 mg / mortality at 0.01 mg: Spodoptera exigua, topical; for mortality at 0.001 mg: 1 μg; for mortality at 0.01 mg: 10 μg
Procedure: as §1
(§2) The procedure of Test A was repeated with Spodoptera expigua and Chilo suppressalis caterpillars with compound A and the results are reported in Table II.

[4] = test system: Chilo suppressalis caterpillars; assay: Insecticidal activity against Chilo suppressalis caterpillars, topical application; settings: for mortality at 0.001 mg / mortality at 0.01 mg: Chilo suppressalis, topical; for mortality at 0.001 mg: 1 μg; for mortality at 0.01 mg: 10 μg
Procedure: as §1, §2

Sitophilus granarius = assay: Insecticidal activity against Sitophilus granarius, topical application to ventral thorax; settings: 20°C; for mortality at 0.1 mg: dose 100 (μg); for mortality at 1 mg: dose 1000 (μg)
Procedure: 0.2 μl of an acetone solution of the test product was applied to the ventral thorax of each insect at concentrations of 5000 and 500 ppm with 50 insects for each test. The insects were held at 20°C and the percent of mortality was determined 24 and 48 hours and 6 days after the treatment.

Drosophila melanogaster = assay: Insecticidal activity against Drosophila melanogaster, dried film in crystallizer (contact and vapor); settings: for Emax at 50 µg/mL / Emax at 500 µg/mL / Emax at 5000 µg/mL: Drosophila melanogaster, read-out: % Efficacy; for Emax at 50 µg/mL: 50 mg/liter; for Emax at 500 µg/mL: 500 mg/liter; for Emax at 5000 µg/mL: 5000 mg/liter
Procedure: 2 ml of an acetone solution of the test product at concentrations of 5000, 500 and 50 ppm were placed in the bottom of a crystallizer and were then allowed to dry for 1 hour under a laboratory atmosphere. Three tests were run for each concentration and 25 to 50 drosophiles were placed in the crystallizer together with a carrot ring which acted as nutrient for the insects. The crystallizers were closed with a Petri dish cover and they were stored at 20°C. The number of living and dead insects was determined after 1,2,4 and 24 hours and the results for compound A are reported in Table IV.

Ceratitis capitata = assay: Insecticidal activity against Ceratitis capitata flies, topical application; settings: for mortality at 100 µg/mL / mortality at 1000 µg/mL: Ceratitis capitata; for mortality at 100 µg/mL: topical; for mortality at 1000 µg/mL: 1000 mg per liter, 1 μl topical
Procedure: This test was effected topically with acetone solutions of 1000 or 100 mg of compound A per liter and 1 μl of the solution was applied to the dorsal thorax of Ceratitis capitata flies aged 25 days (± 0.5) using 50 insects for each concentration. The number of flies still living and dead was determined after 2 and 24 hours to determine the percent of mortality.

Blatella germanica = assay: Insecticidal activity against Blatella germanica, topical application to ventral thorax; settings: for insecticidal activity: in vivo
Procedure: 1 μl of an acetone solution of the test product was applied to the ventral thorax of the insects with 20 insects per dose and concentrations of 2500, 1250, 625 and 312,5 mg/liter. The number of living and dead insects 24 and 48 hours and 6 days after the treatment was determined and the results were reported in Table VI.

Panagrellus silusae = assay: Nematocidal activity against Panagrellus silusae in aqueous suspension; settings: for mortality at 100 µg/mL / mortality at 1000 µg/mL: Panagrellus, 24 hours; for mortality at 100 µg/mL: 0.1 g/l; for mortality at 1000 µg/mL: 1 g/l; for nematocidal activity: in vivo
Procedure: (§3) About 2000 nematodes suspended in 0.5 ml of water were placed in a container of about 50 ml and 10 ml of an aqueous suspension of the test compound at a concentration of 1 or 0.1 g/liter were added thereto using 3 tests for each concentration. After homogenization of the aqueous media for 24 hours, a 1 ml sample was taken and the living and dead nematodes were counted with a Peter sheet.

[5] = test system: Ditylenchus myceliophagus; assay: Nematocidal activity against Ditylenchus myceliophagus in aqueous suspension; settings: for mortality at 100 µg/mL / mortality at 1000 µg/mL: Ditylenchus myceliophagus, 24 hours; for mortality at 100 µg/mL: 0.1 g/l; for mortality at 1000 µg/mL: 1.0 g/l; for nematocidal activity: in vivo
Procedure: as §3

Tetranychus urticae eggs = assay: Acaricidal activity, ovicide test on egg-infested bean leaves; settings: 216 h, 9 days after treatment
Procedure: (§4) Bean leaves infested with 10 Tetranychus urticae females per leaf and coated with glue about their periphery were used in this test and the females were left to lay eggs for 24 hours and were then removed from the leaves which were egg infested and divided into 2 groups. The first group was sprayed with 0.5 ml of an aqueous solution of compound A for each leaf at concentrations of 50 or 10 mg per liter and the second group was untreated to act as controls. The number of living eggs 9 days after the treatment was determined and the percent of egg mortality was determined and reported in Table IX.

Tetranychus urticae = assay: Acaricidal activity, adulticide test on infested bean leaves; settings: read-out: % Mortality (adults); for mortality at 10 µg/mL: 10 mg/liter
Procedure: Bean leaves infested with 25 acarids per leaf and coated with glue about their edge were divided into 2 groups. The first group was sprayed with 2.5 ml of an aqueous solution of the test compound A for each leaf at concentrations of 50, 10 and 1 mg/liter. The second control group was untreated and the number of acarids living 48 hours after the spraying was determined to determine the percent of mortality.

[6] = test system: Tetranychus urticae larvae; assay: Acaricidal activity, larvicide test on bean leaves; settings: 216 h, 9 days after treatment
Procedure: as §4
This test was similar to the ovicide test but the readings were effected 9 days after the treatment to allow time for the insects to evolve.

CCOC(=O)c1csc(OP(=S)(OCC)OCC)n1 [Compound A, 4-ethoxycarbonyl-2-(diethoxythiophosphoryloxy)-thiazole]
insecticidal activity [1]: good insecticidal activity | mortality at 0.01 mg ([1]; 24 h): 100% | mortality at 0.01 mg ([1]; 48 h): 100% | mortality at 0.001 mg ([2]; 24 hr): 40% | mortality at 0.001 mg ([2]; 48 hr): 50% | mortality at 0.01 mg ([2]; 24 hr): 100% | mortality at 0.01 mg ([2]; 48 hr): 100% | insecticidal activity ([2]; in vivo): good insecticidal activity | mortality at 0.001 mg ([3]; 24 hr): 90% | mortality at 0.001 mg ([3]; 48 hr): 90% | mortality at 0.01 mg ([3]; 24 hr): 100% | mortality at 0.01 mg ([3]; 48 hr): 100% | insecticidal activity ([3]; in vivo): good insecticidal activity | mortality at 0.001 mg ([4]; 24 hr): 100% | mortality at 0.001 mg ([4]; 48 hr): 100% | mortality at 0.01 mg ([4]; 24 hr): 100% | mortality at 0.01 mg ([4]; 48 hr): 100% | insecticidal activity ([4]; in vivo): good insecticidal activity | mortality at 0.1 mg (Sitophilus granarius; 144 h, 6 days): 10% | mortality at 1 mg (Sitophilus granarius; 144 h, 6 days): 100% | mortality at 0.1 mg (Sitophilus granarius; 24 hr): 6% | mortality at 0.1 mg (Sitophilus granarius; 48 hr): 6% | mortality at 1 mg (Sitophilus granarius; 24 hr): 100% | mortality at 1 mg (Sitophilus granarius; 48 hr): 100% | Emax at 50 µg/mL (Drosophila melanogaster; 1 hour): 0% | Emax at 50 µg/mL (Drosophila melanogaster; 2 hours): 0% | Emax at 50 µg/mL (Drosophila melanogaster; 4 hours): 0% | Emax at 50 µg/mL (Drosophila melanogaster; 24 hours): 32.8% | Emax at 500 µg/mL (Drosophila melanogaster; 1 hour): 0% | Emax at 500 µg/mL (Drosophila melanogaster; 2 hours): 0% | Emax at 500 µg/mL (Drosophila melanogaster; 4 hours): 0% | Emax at 500 µg/mL (Drosophila melanogaster; 24 hours): 100% | Emax at 5000 µg/mL (Drosophila melanogaster; 1 hour): 0% | Emax at 5000 µg/mL (Drosophila melanogaster; 2 hours): 0% | Emax at 5000 µg/mL (Drosophila melanogaster; 4 hours): 5.9% | Emax at 5000 µg/mL (Drosophila melanogaster; 24 hours): 100% | contact and vapor insecticidal activity (Drosophila melanogaster; in vivo): good contact and vapor insecticidal activity | mortality at 100 µg/mL (Ceratitis capitata; 2 h): 61.2% | mortality at 100 µg/mL (Ceratitis capitata; 24 h): 38.8% | mortality at 1000 µg/mL (Ceratitis capitata; 2 hours): 91.7% | mortality at 1000 µg/mL (Ceratitis capitata; 24 hours): 97.9% | insecticidal activity (Ceratitis capitata; in vivo): good insecticidal activity | % mortality (Blatella germanica; 625 mg/liter, 24 hr): 10.0% | % mortality (Blatella germanica; 625 mg/liter, 48 hr): 10.0% | % mortality (Blatella germanica; 625 mg/liter, 6 days): 15.0% | % mortality (Blatella germanica; 1250 mg/liter, 24 hr): 90.0% | % mortality (Blatella germanica; 1250 mg/liter, 48 hr): 95.0% | % mortality (Blatella germanica; 1250 mg/liter, 6 days): 100% | % mortality (Blatella germanica; 2500 mg/liter, 24 hr): 95.0% | % mortality (Blatella germanica; 2500 mg/liter, 48 hr): 95.0% | % mortality (Blatella germanica; 2500 mg/liter, 6 days): 100% | insecticidal activity (Blatella germanica): good insecticidal activity | mortality at 100 µg/mL (Panagrellus silusae): 86.5% | mortality at 1000 µg/mL (Panagrellus silusae): 100% | nematocidal activity (Panagrellus silusae): good nematocidal activity | mortality at 100 µg/mL [5]: 88.4% | mortality at 1000 µg/mL [5]: 100% | nematocidal activity [5]: good nematocidal activity | mortality at 10 µg/mL (Tetranychus urticae eggs; 10 mg/liter): 93.3% | mortality at 50 µg/mL (Tetranychus urticae eggs; 50 mg/liter): 100% | mortality at 10 µg/mL (Tetranychus urticae; 48 hours): 100% | mortality at 50 µg/mL (Tetranychus urticae; 50 mg/liter, 48 hours): 100% | mortality at 10 µg/mL ([6]; 10 mg/liter): 100% | mortality at 50 µg/mL ([6]; 50 mg/liter): 100%

CCOC(=O)Cc1csc(OP(=S)(OCC)OCC)n1 [Compound B, 4-ethoxycarbonylmethyl-2-(diethoxythiophosphoryloxy)-thiazole]
% mortality (Blatella germanica; 625 mg/liter, 24 hr): 100% | % mortality (Blatella germanica; 625 mg/liter, 48 hr): 100% | % mortality (Blatella germanica; 625 mg/liter, 6 days): 100% | % mortality (Blatella germanica; 1250 mg/liter, 24 hr): 100% | % mortality (Blatella germanica; 1250 mg/liter, 48 hr): 100% | % mortality (Blatella germanica; 1250 mg/liter, 6 days): 100% | % mortality (Blatella germanica; 312,5 mg/liter, 24 hr): 90% | % mortality (Blatella germanica; 312,5 mg/liter, 48 hr): 90% | % mortality (Blatella germanica; 312,5 mg/liter, 6 days): 90% | insecticidal activity (Blatella germanica): good insecticidal activity | mortality at 100 µg/mL (Panagrellus silusae): 100% | mortality at 1000 µg/mL (Panagrellus silusae): 100% | nematocidal activity (Panagrellus silusae): good nematocidal activity | mortality at 100 µg/mL [5]: 55.7% | mortality at 1000 µg/mL [5]: 100% | nematocidal activity [5]: good nematocidal activity | mortality at 1 µg/mL (Tetranychus urticae; 1 mg/liter, 48 hours): 20% | mortality at 10 µg/mL (Tetranychus urticae; 48 hours): 96% | mortality at 50 µg/mL (Tetranychus urticae; 48 h): 100%
